In patent US20230416256A1, “SMALL MOLECULE INHIBITORS OF NF-kB INDUCING KINASE” (Janssen Pharmaceutica NV, priority 2020, published 2023):
Read-outs that look alike come from different tables or passages of the source.

What was measured:
[1] = molecular target: recombinant human NF-kappaB-inducing kinase (NIK/MAP3K14) (Homo sapiens, UniProt Q99558); test: Inhibition of auto-phosphorylation of recombinant human NIK/MAP3K14 activity (AlphaScreen); assay type: biochemical; conditions: GST-tagged NIK/MAP3K14 1 nM, 5 μM ATP, 2 h at 25° C.; average of values obtained
Outline: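 GST-tagged NIK (1 nM) auto-phosphorylated for 2 h at 25 °C with 5 μM ATP in 50 mM Tris pH 7.5, 5 mM MgCl2, 0.7% DMSO. Phospho-Ser176/180 was detected by AlphaScreen using an anti-phospho-IKK antibody. IC50 came from sigmoidal fits of % inhibition versus high (full activity) and low (no ATP) controls.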

[2] = tested on: p-IKKα levels in L363 (NIK translocated multiple myeloma) cells; test: Effect of compounds on p-IKKα levels in L363 cells (AlphaLISA SureFire Ultra); assay type: cell-based, human; conditions: 10 μM MG132, 6 h, average of values obtained, read-out: Assay 2 IC50
Outline: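 L363 cells were BAFF-stimulated overnight (250 ng/ml) in DMEM/0.5% BSA, then exposed to an 11-point 1:3 compound series (0.3% DMSO) with BAFF and 10 μM MG132 for 6 h at 37 °C. p-IKKα (Ser176/180) was measured by AlphaLISA SureFire Ultra. IC50 was fitted from % inhibition normalized to stimulated and unstimulated controls.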

[3] = Homo sapiens, L-363, 6 h, 250 ng/ml BAFF stimulated
[4] = Homo sapiens, L-363, 250 ng/ml BAFF stimulated

recombinant human NF-kappaB-inducing kinase (NIK/MAP3K14), sequence (Q99558 whole entry): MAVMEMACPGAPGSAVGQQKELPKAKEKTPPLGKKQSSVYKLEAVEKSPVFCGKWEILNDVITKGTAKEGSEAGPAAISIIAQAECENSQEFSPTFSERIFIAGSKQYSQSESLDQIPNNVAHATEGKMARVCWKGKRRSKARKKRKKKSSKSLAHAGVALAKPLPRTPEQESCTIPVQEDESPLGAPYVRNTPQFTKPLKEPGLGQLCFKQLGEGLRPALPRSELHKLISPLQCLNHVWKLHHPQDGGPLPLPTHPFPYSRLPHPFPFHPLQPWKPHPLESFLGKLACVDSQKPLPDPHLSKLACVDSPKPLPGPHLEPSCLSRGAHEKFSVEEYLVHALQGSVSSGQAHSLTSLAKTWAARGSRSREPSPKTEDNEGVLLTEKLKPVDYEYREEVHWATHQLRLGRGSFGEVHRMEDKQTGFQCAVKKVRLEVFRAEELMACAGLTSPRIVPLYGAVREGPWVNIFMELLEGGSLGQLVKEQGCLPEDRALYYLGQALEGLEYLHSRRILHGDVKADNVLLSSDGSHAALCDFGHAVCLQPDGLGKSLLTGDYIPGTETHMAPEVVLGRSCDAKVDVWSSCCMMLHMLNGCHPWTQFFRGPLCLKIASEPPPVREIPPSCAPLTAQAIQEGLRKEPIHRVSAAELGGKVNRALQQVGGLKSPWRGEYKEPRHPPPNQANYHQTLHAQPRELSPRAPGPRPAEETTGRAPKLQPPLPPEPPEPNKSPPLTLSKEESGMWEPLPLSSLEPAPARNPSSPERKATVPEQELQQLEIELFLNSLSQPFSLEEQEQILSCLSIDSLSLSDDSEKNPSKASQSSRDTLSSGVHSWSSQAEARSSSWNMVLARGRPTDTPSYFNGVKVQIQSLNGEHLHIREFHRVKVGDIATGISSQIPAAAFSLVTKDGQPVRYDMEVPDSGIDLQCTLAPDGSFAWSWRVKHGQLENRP

| SMILES | IC50 [1] [nM] | IC50 [2, 3] [nM] | IC50 [2, 4] [nM] | IC50 ([2]; 250 ng/ml BAFF stimulated) [nM] |
| --- | --- | --- | --- | --- |
| [2H]c1[nH]c2nccnc2c1-c1nc(-c2cccc([C@]3(O)CCn4ccnc43)c2)cs1 [Example 62, (R)-7-(3-(2-(5H-Pyrrolo[2,3-b]pyrazin-7-yl-6-d)thiazol-4-yl)phenyl)-6,7-dihydro-5H-pyrrolo[1,2-a]imidazol-7-ol] | ≤ 100 | ≤ 100 |  |  |
| [2H]c1cnc2[nH]cc(-c3nc(-c4cccc([C@]5(O)CCn6ccnc65)c4)cs3)c2n1 [Example 63, (R)-7-(3-(2-(5H-Pyrrolo[2,3-b]pyrazin-7-yl-2-d)thiazol-4-yl)phenyl)-6,7-dihydro-5H-pyrrolo[1,2-a] imidazol-7-ol] | ≤ 100 | ≤ 100 |  |  |
| Cc1sc(-c2c[nH]c3nccnc23)nc1-c1cccc([C@]2(O)CCN(C)C2=O)c1 [Example 66, (R)-3-Hydroxy-1-methyl-3-(3-(5-methyl-2-(5H-pyrrolo[2,3-b]pyrazin-7-yl)thiazol-4-yl)phenyl)pyrrolidin-2-one] | ≤ 100 |  | > 500 |  |
| Cc1ccc([C@]2(O)CCN(C)C2=O)cc1-c1csc(-c2c[nH]c3nccnc23)n1 [Example 67, (R)-3-(3-(2-(5H-Pyrrolo[2,3-b]pyrazin-7-yl)thiazol-4-yl)-4-methylphenyl)-3-hydroxy-1-methylpyrrolidin-2-one] | ≤ 100 |  | > 500 |  |
| Cc1cc(-c2csc(-c3c[nH]c4nccnc34)n2)cc([C@]2(O)CCN(C)C2=O)c1 [Example 68, (R)-3-(3-(2-(5H-Pyrrolo[2,3-b]pyrazin-7-yl)thiazol-4-yl)-5-methylphenyl)-3-hydroxy-1-methylpyrrolidin-2-one] | ≤ 100 |  | > 500 |  |
| Cc1ccc(-c2csc(-c3c[nH]c4nccnc34)n2)cc1[C@]1(O)CCN(C)C1=O [Example 69, (R)-3-(5-(2-(5H-Pyrrolo[2,3-b]pyrazin-7-yl)thiazol-4-yl)-2-methylphenyl)-3-hydroxy-1-methylpyrrolidin-2-one] | 100 to 500 |  | > 500 |  |
| Cc1ccc(-c2csc(-c3c[nH]c4nccnc34)n2)cc1[C@@]1(O)CCN(C)C1=O [Example 70, (S)-3-(5-(2-(5H-Pyrrolo[2,3-b]pyrazin-7-yl)thiazol-4-yl)-2-methylphenyl)-3-hydroxy-1-methylpyrrolidin-2-one] | > 500 |  | > 500 |  |
| Cc1[nH]c2ncccc2c1-c1nc(-c2cccc([C@]3(O)CCN(C)C3=O)c2)cs1 [Example 71, (R)-3-Hydroxy-1-methyl-3-(3-(2-(2-methyl-1H-pyrrolo[2,3-b]pyridin-3-yl)thiazol-4-yl)phenyl)pyrrolidin-2-one] | 100 to 500 |  | > 500 |  |
| CN1CC[C@@](O)(c2cccc(-c3csc(-c4c[nH]c5ncc(C#N)cc45)n3)c2)C1=O [Example 72, (R)-3-(4-(3-(3-Hydroxy-1-methyl-2-oxopyrrolidin-3-yl)phenyl)thiazol-2-yl)-1H-pyrrolo[2,3-b]pyridine-5-carbonitrile] | ≤ 100 |  | > 500 |  |
| Cc1ccc2c(-c3nc(-c4cccc([C@]5(O)CCN(C)C5=O)c4)cs3)c[nH]c2n1 [Example 73, (R)-3-Hydroxy-1-methyl-3-(3-(2-(6-methyl-1H-pyrrolo[2,3-b]pyridin-3-yl)thiazol-4-yl)phenyl)pyrrolidin-2-one] | ≤ 100 |  | > 500 |  |
| Cc1cnc2[nH]c(C)c(-c3nc(-c4cccc([C@]5(O)CCN(C)C5=O)c4)cs3)c2c1 [Example 74, (R)-3-(3-(2-(2,5-Dimethyl-1H-pyrrolo[2,3-b]pyridin-3-yl)thiazol-4-yl)phenyl)-3-hydroxy-1-methylpyrrolidin-2-one] | > 500 |  | > 500 |  |
| O[C@@]1(c2cccc(-c3csc(-c4n[nH]c5ncccc45)n3)c2)CCn2ccnc21 [Example 75, (R)-7-(3-(2-(1H-Pyrazolo[3,4-b]pyridin-3-yl)thiazol-4-yl)phenyl)-6,7-dihydro-5H-pyrrolo[1,2-a]imidazol-7-ol] | 100 to 500 | > 500 |  |  |
| O[C@@]1(c2cccc(-c3csc(-c4n[nH]c5nccnc45)n3)c2)CCn2ccnc21 [Example 76, (R)-7-(3-(2-(1H-Pyrazolo[3,4-b]pyrazin-3-yl)thiazol-4-yl)phenyl)-6,7-dihydro-5H-pyrrolo[1,2-a]imidazol-7-ol] | 100 to 500 | > 500 |  |  |
| Cc1cnc2[nH]cc(-c3nc(-c4cccc([C@]5(O)CCn6ccnc65)c4)cs3)c2n1 [Example 81, (R)-7-(3-(2-(2-Methyl-5H-pyrrolo[2,3-b]pyrazin-7-yl)thiazol-4-yl)phenyl)-6,7-dihydro-5H-pyrrolo[1,2-a]imidazol-7-ol] | ≤ 100 | ≤ 100 |  |  |
| Cc1cnc2[nH]cc(-c3nc(-c4cccc([C@@]5(O)CCn6ccnc65)c4)cs3)c2n1 [Example 82, (S)-7-(3-(2-(2-Methyl-5H-pyrrolo[2,3-b]pyrazin-7-yl)thiazol-4-yl)phenyl)-6,7-dihydro-5H-pyrrolo[1,2-a]imidazol-7-ol] | 100 to 500 | > 500 |  |  |
| Cc1cnc2c(-c3nc(-c4cccc([C@]5(O)CCn6ccnc65)c4)cs3)c[nH]c2n1 [Example 83, (R)-7-(3-(2-(3-Methyl-5H-pyrrolo[2,3-b]pyrazin-7-yl)thiazol-4-yl)phenyl)-6,7-dihydro-5H-pyrrolo[1,2-a]imidazol-7-ol] | ≤ 100 | 100 to 500 |  |  |
| O[C@]1(c2cccc(-c3nc(-c4c[nH]c5ncccc45)cs3)c2)CCn2ccnc21 [Example 84, (S)-7-(3-(4-(1H-Pyrrolo[2,3-b]pyridin-3-yl)thiazol-2-yl)phenyl)-6,7-dihydro-5H-pyrrolo[1,2-a]imidazol-7-ol] | 100 to 500 | > 500 |  |  |
| O[C@@]1(c2cccc(-c3csc(-c4c[nH]c5ncccc45)n3)c2)COc2cccnc21 [Example 85, (R)-3-(3-(2-(1H-Pyrrolo[2,3-b]pyridin-3-yl)thiazol-4-yl)phenyl)-2,3-dihydrofuro[3,2-b]pyridin-3-ol] | > 500 |  |  | > 500 |
| O[C@@]1(c2cccc(-c3csc(-c4c[nH]c5nccnc45)n3)c2)COc2cccnc21 [Example 86, (R)-3-(3-(2-(5H-Pyrrolo[2,3-b]pyrazin-7-yl)thiazol-4-yl)phenyl)-2,3-dihydrofuro[3,2-b]pyridin-3-ol] | > 500 |  |  | > 500 |
| Cc1ccnc2[nH]cc(-c3nc(-c4cccc([C@]5(O)CCn6ccnc65)c4)cs3)c12 [Example 87, (R)-7-(3-(2-(4-Methyl-1H-pyrrolo[2,3-b]pyridin-3-yl)thiazol-4-yl)phenyl)-6,7-dihydro-5H-pyrrolo[1,2-a]imidazol-7-ol] | ≤ 100 | > 500 |  |  |
| O[C@@]1(c2cccc(-c3csc(-c4c[nH]c5nnccc45)n3)c2)CCn2ccnc21 [Example 88, (R)-7-(3-(2-(7H-pyrrolo[2,3-c]pyridazin-5-yl)thiazol-4-yl)phenyl)-6,7-dihydro-5H-pyrrolo[1,2-a]imidazol-7-ol] | ≤ 100 | > 500 |  |  |
| CN1C(=O)[C@@](O)(c2cccc(-c3csc(-c4c[nH]c5ncccc45)n3)c2)c2ncccc21 [Example 91, (R)-3-(3-(2-(1H-Pyrrolo[2,3-b]pyridin-3-yl)thiazol-4-yl)phenyl)-3-hydroxy-1-methyl-1,3-dihydro-2H-pyrrolo[3,2-b]pyridin-2-one] | > 500 |  | > 500 |  |
